Reference: ChEMBL document CHEMBL5154787 (J Med Chem, 2022)
Values after ≈ are worked out from the molar mass of the structure shown.

How the values were obtained:
[1] = Drug concentration in CCI induced tactile allodynia in Sprague-Dawley rat spinal cord at 3 mg/kg, po measured at 7.5 hrs post dose; format: ADME, organism-based; conditions: read-out: Ct
[2] = target: Death-associated protein kinase 1 (Homo sapiens, UniProt P53355); test: Inhibition of DAPK1 (unknown origin)
[3] = Chemical stability of the compound assessed as remaining product at pH 1 measured after 22 hrs; format: physicochemical; conditions: buffer, read-out: Stability
[4] = Solubility of compound in FaSSIF incubated for 24 hrs; format: physicochemical
[5] = Genotoxicity in chinese hamster CHO cells without metabolic activation system at 59 uM by IVMN assay; format: toxicity, cell-based, Cricetulus griseus
[6] = Solubility of compound at pH 6.5 measured after 24 hrs; format: physicochemical; conditions: buffer
[7] = Solubility of compound at pH 1 measured after 24 hrs; format: physicochemical; conditions: buffer
Rattus norvegicus [8] = test: Analgesic activity in CCI induced tactile allodynia in Sprague-Dawley rat assessed as reduction in pain response at 3 mg/kg, po by Hargreaves test relative to control; format: functional; parameters: scale not given: the % may be the effect or the level left
[9] = Solubility of compound in FessiF incubated for 24 hrs; format: physicochemical
Rattus norvegicus [10] = test: Analgesic activity in STZ induced in diabetic peripheral neuropathic mechanical allodynia in Sprague-Dawley rat assessed as reduction in pain response at 3 mg/kg, po measured up to 24 hrs by Hargreaves test relative to control; format: functional; parameters: scale not given: the % may be the effect or the level left
Rattus norvegicus [11] = test: Analgesic activity in STZ induced in diabetic peripheral neuropathic mechanical allodynia in Sprague-Dawley rat assessed as reduction in pain response at 10 mg/kg, po measured up to 24 hrs by Hargreaves test relative to control; format: functional; parameters: scale not given: the % may be the effect or the level left
[12] = Chemical stability of the compound assessed as remaining product at pH 7.4 measured after 22 hrs; format: physicochemical; conditions: buffer, read-out: Stability
[13] = Solubility of compound at pH 5 measured after 24 hrs; format: physicochemical; conditions: buffer
[14] = target: 5-hydroxytryptamine receptor 2B (Homo sapiens, UniProt P41595); test: Inhibition of 5HT2B receptor (unknown origin); format: toxicity
Chain of 5-hydroxytryptamine receptor 2B (P41595 whole entry): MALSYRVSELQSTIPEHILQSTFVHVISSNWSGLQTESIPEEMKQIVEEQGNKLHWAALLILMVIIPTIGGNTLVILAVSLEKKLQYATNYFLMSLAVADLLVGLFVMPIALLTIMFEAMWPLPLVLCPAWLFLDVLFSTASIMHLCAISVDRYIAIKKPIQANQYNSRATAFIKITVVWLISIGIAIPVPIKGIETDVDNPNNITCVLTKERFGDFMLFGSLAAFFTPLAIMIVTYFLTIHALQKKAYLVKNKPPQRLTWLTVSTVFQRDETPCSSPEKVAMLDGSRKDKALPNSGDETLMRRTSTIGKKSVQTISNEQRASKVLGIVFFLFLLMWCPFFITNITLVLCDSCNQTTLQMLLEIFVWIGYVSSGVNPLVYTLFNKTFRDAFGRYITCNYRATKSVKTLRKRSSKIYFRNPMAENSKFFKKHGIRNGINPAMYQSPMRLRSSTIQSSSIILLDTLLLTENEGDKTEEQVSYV

Rattus norvegicus [15] = test: Analgesic activity in STZ induced in diabetic peripheral neuropathic mechanical allodynia in Sprague-Dawley rat assessed as reversal in mechanical allodynia by measuring inhibition of pain response at 1 mg/kg, po measured up to 24 hrs by Hargreaves test relative to control; format: functional; parameters: scale not given: the % may be the effect or the level left
[16] = Solubility of compound at pH 7.4 measured after 24 hrs; format: physicochemical; conditions: buffer
[17] = Plasma concentration in STZ-induced diabetic peripheral neuropathic mechanical allodynia in overnight fasted Sprague-Dawley rat at 1 mg/kg, po measured at 5.75 hrs post dose; format: ADME, organism-based
[18] = Drug concentration in STZ-induced diabetic peripheral neuropathic mechanical allodynia in overnight fasted Sprague-Dawley rat spinal cord at 1 mg/kg, po measured at 5.75 hrs post dose; format: ADME, organism-based; conditions: read-out: Ct
[19] = Ratio of drug concentration in spinal cord to plasma in CCI induced thermal hyperalgesia in Sprague-Dawley rat at 1 mg/kg, po measured at 5.5 hrs post dose; format: ADME, organism-based
[20] = target: Hepatic sodium/bile acid cotransporter (Homo sapiens, UniProt Q14973); test: Inhibition of NTCP (unknown origin)
[21] = Plasma concentration in CCI induced thermal hyperalgesia in Sprague-Dawley rat at 3 mg/kg, po measured at 5.5 hrs post dose; format: ADME, organism-based
[22] = target: Solute carrier organic anion transporter family member 1B3 (Homo sapiens, UniProt Q9NPD5); test: Inhibition of OATP1B3 (unknown origin)
Chain of Solute carrier organic anion transporter family member 1B3 (Q9NPD5 whole entry): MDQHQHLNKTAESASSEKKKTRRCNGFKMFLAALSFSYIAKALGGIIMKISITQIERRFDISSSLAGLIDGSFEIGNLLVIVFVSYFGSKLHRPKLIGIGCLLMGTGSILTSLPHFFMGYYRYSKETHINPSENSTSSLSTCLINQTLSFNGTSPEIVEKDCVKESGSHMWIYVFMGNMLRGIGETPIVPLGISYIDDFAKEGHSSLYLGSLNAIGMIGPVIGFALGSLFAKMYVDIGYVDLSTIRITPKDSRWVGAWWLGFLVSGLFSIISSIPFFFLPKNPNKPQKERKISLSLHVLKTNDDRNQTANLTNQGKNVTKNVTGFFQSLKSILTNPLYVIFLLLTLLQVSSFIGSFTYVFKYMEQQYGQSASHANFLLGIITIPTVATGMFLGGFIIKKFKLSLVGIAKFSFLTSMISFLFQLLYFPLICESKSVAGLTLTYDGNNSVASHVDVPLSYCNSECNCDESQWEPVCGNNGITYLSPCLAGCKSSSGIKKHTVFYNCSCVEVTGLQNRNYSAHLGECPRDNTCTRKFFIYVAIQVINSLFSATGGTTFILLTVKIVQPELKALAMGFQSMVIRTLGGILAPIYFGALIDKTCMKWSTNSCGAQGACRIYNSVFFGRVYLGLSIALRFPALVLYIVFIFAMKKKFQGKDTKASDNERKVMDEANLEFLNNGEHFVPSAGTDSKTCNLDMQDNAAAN

Rattus norvegicus [23] = test: Analgesic activity in CCI induced thermal hyperalgesia in Sprague-Dawley rat assessed as reduction in thermal hyperalgesia by measuring inhibition of pain response at 1 mg/kg, po measured after 5.5 hrs by Hargreaves test relative to control; format: functional; parameters: scale not given: the % may be the effect or the level left
[24] = target: Solute carrier family 22 member 6 (Homo sapiens, UniProt Q4U2R8); test: Inhibition of OAT1 (unknown origin)
Cytochrome P450 3A4 [25] = target: T1, Cytochrome P450 3A4 (Homo sapiens, UniProt P08684); test: Time dependent inhibition of […] (unknown origin) using MDZ as substrate incubated for up to 30 mins in presence of NADPH by LC-MS/MS analysis; format: ADME
T1 sequence (P08684 whole entry): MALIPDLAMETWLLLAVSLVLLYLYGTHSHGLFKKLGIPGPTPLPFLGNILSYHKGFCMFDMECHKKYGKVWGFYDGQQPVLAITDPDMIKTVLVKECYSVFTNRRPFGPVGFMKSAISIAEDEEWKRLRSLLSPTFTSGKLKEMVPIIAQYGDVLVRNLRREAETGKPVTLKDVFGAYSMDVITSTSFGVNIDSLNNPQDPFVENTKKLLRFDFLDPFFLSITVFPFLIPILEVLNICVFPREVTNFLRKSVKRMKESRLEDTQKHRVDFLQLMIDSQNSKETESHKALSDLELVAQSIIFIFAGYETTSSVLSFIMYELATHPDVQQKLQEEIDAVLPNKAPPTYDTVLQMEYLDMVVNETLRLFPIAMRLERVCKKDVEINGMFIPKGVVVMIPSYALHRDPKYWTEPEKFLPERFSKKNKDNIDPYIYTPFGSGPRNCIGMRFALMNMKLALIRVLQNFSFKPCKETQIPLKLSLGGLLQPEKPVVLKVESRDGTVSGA

[26] = target: Solute carrier organic anion transporter family member 1B1 (Homo sapiens, UniProt Q9Y6L6); test: Inhibition of OATP1B1 (unknown origin)
Rattus norvegicus [27] = test: Analgesic activity in STZ induced in diabetic peripheral neuropathic path mechanical allodynia in Sprague-Dawley rat assessed as reversal in mechanical allodynia by measuring inhibition of pain response at 1 mg/kg, po measured up to 5.5 hrs by Hargreaves test relative to control; format: functional; parameters: scale not given: the % may be the effect or the level left
[28] = Protein binding in dog plasma assessed as unbound fraction measured after 3 hrs by LC/MS/MS analysis; format: ADME, cell-free, Canis lupus familiaris
[29] = target: Neuronal acetylcholine receptor subunit alpha-7 (Homo sapiens, UniProt P36544); test: Inhibition of nicotinic acetylcholine receptor alpha 7 (unknown origin); format: toxicity
Chain of Neuronal acetylcholine receptor subunit alpha-7 (P36544 whole entry): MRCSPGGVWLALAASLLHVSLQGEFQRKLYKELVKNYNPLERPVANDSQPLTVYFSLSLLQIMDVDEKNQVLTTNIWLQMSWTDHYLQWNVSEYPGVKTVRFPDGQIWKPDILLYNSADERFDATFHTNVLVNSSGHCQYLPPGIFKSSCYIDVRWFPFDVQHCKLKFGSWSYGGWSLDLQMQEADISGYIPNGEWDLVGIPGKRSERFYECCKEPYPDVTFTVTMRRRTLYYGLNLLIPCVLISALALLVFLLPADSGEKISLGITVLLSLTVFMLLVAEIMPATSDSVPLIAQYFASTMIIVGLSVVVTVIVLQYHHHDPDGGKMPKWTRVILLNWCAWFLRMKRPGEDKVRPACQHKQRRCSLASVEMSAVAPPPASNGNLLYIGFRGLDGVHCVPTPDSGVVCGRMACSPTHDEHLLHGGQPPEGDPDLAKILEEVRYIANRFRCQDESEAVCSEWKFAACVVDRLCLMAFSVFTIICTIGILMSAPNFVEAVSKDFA

[30] = Ratio of drug concentration in spinal cord to plasma in CCI induced thermal hyperalgesia in Sprague-Dawley rat at 3 mg/kg, po measured at 5.5 hrs post dose; format: ADME, organism-based
[31] = target: ATP-binding cassette sub-family C member 2 (Homo sapiens, UniProt Q92887); test: Inhibition of MRP2 (unknown origin)
[32] = Plasma concentration in CCI induced thermal hyperalgesia in Sprague-Dawley rat at 1 mg/kg, po measured at 5.5 hrs post dose; format: ADME, organism-based
Rattus norvegicus [33] = test: Analgesic activity in CCI induced thermal hyperalgesia in Sprague-Dawley rat assessed as reduction in thermal hyperalgesia by measuring inhibition of pain response at 3 mg/kg, po measured after 5.5 hrs by Hargreaves test relative to control; format: functional; parameters: scale not given: the % may be the effect or the level left
[34] = target: Citron Rho-interacting kinase (Homo sapiens, UniProt O14578); test: Inhibition of CRIK (unknown origin)
[35] = Tmax in rat at 3 mg/kg, po; format: ADME, organism-based; conditions: in vivo
[36] = target: Organic anion transporter 3 (Homo sapiens, UniProt Q8TCC7); test: Inhibition of OAT3 (unknown origin)
Chain of Organic anion transporter 3 (Q8TCC7 whole entry): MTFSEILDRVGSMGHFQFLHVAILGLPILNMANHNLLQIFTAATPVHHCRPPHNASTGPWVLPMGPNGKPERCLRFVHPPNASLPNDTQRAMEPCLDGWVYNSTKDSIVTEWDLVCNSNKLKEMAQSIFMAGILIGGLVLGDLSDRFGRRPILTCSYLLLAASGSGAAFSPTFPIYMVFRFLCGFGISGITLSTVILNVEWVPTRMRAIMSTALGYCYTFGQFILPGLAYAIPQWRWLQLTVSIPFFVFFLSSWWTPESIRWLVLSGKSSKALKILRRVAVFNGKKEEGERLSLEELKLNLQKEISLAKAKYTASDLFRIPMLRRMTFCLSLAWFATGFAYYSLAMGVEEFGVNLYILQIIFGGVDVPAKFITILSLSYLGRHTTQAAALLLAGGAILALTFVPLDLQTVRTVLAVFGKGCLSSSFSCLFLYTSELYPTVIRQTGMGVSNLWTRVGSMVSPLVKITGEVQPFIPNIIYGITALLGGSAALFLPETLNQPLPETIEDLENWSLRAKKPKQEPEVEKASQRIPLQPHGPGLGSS

[37] = In vivo protein occupancy at AAK1 in rat at 3 mg/kg, po measured after 4 hrs; format: functional
Cytochrome P450 3A4 [38] = target: T1, Cytochrome P450 3A4; test: Time dependent inhibition of […] (unknown origin) using TST as substrate incubated for up to 30 mins in presence of NADPH by LC-MS/MS analysis; format: ADME
[39] = Drug concentration in CCI induced thermal hyperalgesia in Sprague-Dawley rat spinal cord at 1 mg/kg, po measured after 5.5 hrs; format: ADME, organism-based; conditions: read-out: Ct
[40] = Drug concentration in CCI induced thermal hyperalgesia in Sprague-Dawley rat spinal cord at 3 mg/kg, po measured after 5.5 hrs; format: ADME, organism-based; conditions: read-out: Ct
Bile salt export pump = Bile salt export pump (Homo sapiens, UniProt O95342); test: Inhibition of BSEP (unknown origin)
[41] = target: Sodium-dependent noradrenaline transporter (Homo sapiens, UniProt P23975); test: Inhibition of NET (unknown origin); format: toxicity
Chain of Sodium-dependent noradrenaline transporter (P23975 whole entry): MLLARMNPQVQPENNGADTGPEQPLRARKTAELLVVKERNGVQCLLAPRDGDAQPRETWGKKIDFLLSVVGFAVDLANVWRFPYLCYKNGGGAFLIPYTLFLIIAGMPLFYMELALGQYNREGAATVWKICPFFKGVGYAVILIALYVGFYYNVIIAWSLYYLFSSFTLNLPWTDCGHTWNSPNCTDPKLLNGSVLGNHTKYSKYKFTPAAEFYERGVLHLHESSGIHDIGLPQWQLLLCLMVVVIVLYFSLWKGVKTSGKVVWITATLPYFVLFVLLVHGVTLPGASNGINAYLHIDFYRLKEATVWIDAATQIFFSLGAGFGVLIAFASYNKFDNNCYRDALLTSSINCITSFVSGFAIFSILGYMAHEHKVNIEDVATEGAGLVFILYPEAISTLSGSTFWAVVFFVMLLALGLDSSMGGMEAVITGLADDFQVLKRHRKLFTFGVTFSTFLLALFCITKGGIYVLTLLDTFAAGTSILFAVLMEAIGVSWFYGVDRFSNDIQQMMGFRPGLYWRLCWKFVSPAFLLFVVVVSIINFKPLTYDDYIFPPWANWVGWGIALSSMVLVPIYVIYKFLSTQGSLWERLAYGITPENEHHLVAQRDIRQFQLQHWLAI

[42] = Inhibition of TAK/TAB (unknown origin)
[43] = target: Rho-associated protein kinase 2 (Homo sapiens, UniProt O75116); test: Inhibition of ROCK2 (unknown origin)
Chain of Rho-associated protein kinase 2 (O75116 whole entry): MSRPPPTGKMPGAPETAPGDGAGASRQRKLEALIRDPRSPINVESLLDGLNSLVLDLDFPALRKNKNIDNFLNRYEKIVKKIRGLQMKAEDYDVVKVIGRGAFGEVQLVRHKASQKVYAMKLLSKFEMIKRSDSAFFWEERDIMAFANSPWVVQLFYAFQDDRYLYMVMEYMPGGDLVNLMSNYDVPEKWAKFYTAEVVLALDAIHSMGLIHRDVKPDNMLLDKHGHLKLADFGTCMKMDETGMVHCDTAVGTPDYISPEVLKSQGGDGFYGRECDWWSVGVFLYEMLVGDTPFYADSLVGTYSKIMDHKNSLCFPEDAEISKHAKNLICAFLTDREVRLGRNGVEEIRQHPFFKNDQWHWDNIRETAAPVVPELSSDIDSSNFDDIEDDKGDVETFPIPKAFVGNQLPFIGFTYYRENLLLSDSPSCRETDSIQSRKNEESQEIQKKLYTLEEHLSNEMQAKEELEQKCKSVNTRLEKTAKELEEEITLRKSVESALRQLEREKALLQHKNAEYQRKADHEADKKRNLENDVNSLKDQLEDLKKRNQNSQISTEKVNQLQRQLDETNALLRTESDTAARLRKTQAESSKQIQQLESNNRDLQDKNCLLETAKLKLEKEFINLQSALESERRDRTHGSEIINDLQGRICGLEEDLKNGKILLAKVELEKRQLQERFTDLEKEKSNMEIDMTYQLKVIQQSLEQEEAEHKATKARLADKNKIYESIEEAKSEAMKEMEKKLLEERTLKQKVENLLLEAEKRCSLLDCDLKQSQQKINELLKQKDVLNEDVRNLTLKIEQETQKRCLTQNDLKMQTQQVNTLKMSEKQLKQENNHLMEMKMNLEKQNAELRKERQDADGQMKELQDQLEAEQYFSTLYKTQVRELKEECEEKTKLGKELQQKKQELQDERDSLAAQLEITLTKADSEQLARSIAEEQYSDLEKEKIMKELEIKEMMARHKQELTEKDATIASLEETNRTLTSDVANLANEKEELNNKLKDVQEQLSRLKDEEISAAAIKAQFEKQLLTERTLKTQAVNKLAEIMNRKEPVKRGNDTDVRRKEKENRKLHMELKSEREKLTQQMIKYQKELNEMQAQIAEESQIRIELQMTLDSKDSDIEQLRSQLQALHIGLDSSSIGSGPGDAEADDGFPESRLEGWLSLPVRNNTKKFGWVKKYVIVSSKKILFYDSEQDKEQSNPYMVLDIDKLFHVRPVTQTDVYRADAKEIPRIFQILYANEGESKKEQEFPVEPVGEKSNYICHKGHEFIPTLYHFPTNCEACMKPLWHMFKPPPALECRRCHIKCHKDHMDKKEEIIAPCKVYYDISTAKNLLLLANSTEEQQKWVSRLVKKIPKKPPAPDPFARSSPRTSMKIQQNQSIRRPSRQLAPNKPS

[44] = target: Acetylcholine receptor subunit alpha (Homo sapiens, UniProt P02708); test: Inhibition of nicotinic acetylcholine receptor alpha 1 (unknown origin); format: toxicity

`COC(=O)Nc1cc(-c2ccc(OC[C@@](C)(N)CC(C)C)c(C)n2)ccn1` gave a concentration at 7.5 h [1] of 4400 nM, an IC50 [2] of 1.4 µM and a remaining at 22 h [3] of 100%. The solubility at 24 h [4] was > 1000 µg/mL, the Activity [5] was “Non-Toxic” and the solubility at 24 h [6] was > 1000 µg/mL. The solubility at 24 h [7] was > 1000 µg/mL, the Activity (Rattus norvegicus [8]) was 80% and the solubility at 24 h [9] was > 1000 µg/mL. For the same compound, the Activity (Rattus norvegicus [10]) was 60%, the Activity (Rattus norvegicus [11]) was 80% and the remaining at 22 h [12] was 100%. The solubility at 24 h [13] was > 1000 µg/mL, the IC50 [14] was 0.54 µM and the Activity (Rattus norvegicus [15]) was 40%. It also gave a solubility at 24 h [16] of 288 µg/mL (≈ 773 µM), a concentration at 5.75 h [17] of 80 nM and a concentration at 5.75 h [18] of 213 nM.

For `CC(C)C[C@](C)(N)COc1cnc(-c2ccnc(C(F)F)c2)cc1C(F)F`, the Kp at 5.5 h [19] was 18, the IC50 [20] was > 50 µM and the concentration at 5.5 h [21] was 29 nM. For the same compound, the IC50 [22] was > 50 µM, the Activity (Rattus norvegicus [23]) was 80% and the IC50 [24] was > 50 µM. For the same compound, the IC50 (Cytochrome P450 3A4 [25]) was > 40 µM, the IC50 [26] was > 50 µM and the Activity (Rattus norvegicus [27]) was 50%. For the same compound, the fraction unbound at 3 h [28] was 0.08, the IC50 [29] was 4 µM and the Kp at 5.5 h [30] was 13. The IC50 [31] was > 50 µM, the concentration at 5.5 h [32] was 12 nM and the Activity (Rattus norvegicus [33]) was 100%. The IC50 [34] was 1.2 µM, the Tmax [35] was 3.7 h and the IC50 [36] was > 50 µM. The Activity [37] was 95%, the IC50 (Cytochrome P450 3A4 [38]) was > 40 µM and the concentration at 5.5 h [39] was 217 nM. The concentration at 5.5 h [40] was 378 nM, the concentration at 5.75 h [17] was 80 nM and the concentration at 5.75 h [18] was 213 nM. For the same compound, the IC50 (Bile salt export pump) was > 50 µM and the IC50 [41] was 1.8 µM.

With `COC(=O)Nc1cc(-c2cnc(OC[C@@](C)(N)CC(C)C)c(C)c2)ccn1` the concentration at 7.5 h [1] was 720 nM, the IC50 [42] was 0.18 µM and the IC50 (Cytochrome P450 3A4 [25]) was > 40 µM. It also gave an IC50 [29] of 4.5 µM, an Activity (Rattus norvegicus [8]) of 60% and an IC50 [43] of 1.3 µM. For the same compound, the IC50 [44] was 2.2 µM, the IC50 (Cytochrome P450 3A4 [38]) was > 40 µM and the IC50 [41] was 5 µM.
